The values that follow come from article PMC5218480 (PLoS ONE, 2017).

In the experiment the test system is MV-4-11 cells. The experiment is described as follows: Gene expression microarray analysis (Affymetrix PrimeView) and GSEA. Format: cell-based, human. Details: RFU PODN (11730768_x_at) / Fold change /veh PODN (11730768_x_at) / RFU LINC00158 (11744669_a_at) / Fold change /veh LINC00158 (11744669_a_at) / RFU DUSP10 (11751237_a_at) / Fold change /veh DUSP10 (11751237_a_at) / RFU ID3 (11757404_x_at) / Fold change /veh ID3 (11757404_x_at) / RFU PLEKHG5 (11737974_s_at) / Fold change /veh PLEKHG5 (11737974_s_at) / RFU LRRC4B (11730491_at) / Fold change /veh LRRC4B (11730491_at) / RFU GIMAP4 (11747438_a_at) / Fold change /veh GIMAP4 (11747438_a_at) / RFU KRT8 (11758183_x_at) / Fold change /veh KRT8 (11758183_x_at) / RFU CNN1 (11734310_a_at) / Fold change /veh CNN1 (11734310_a_at) / RFU VPS37D (11726825_at) / Fold change /veh VPS37D (11726825_at) / RFU C10orf10 (11716522_x_at) / Fold change /veh C10orf10 (11716522_x_at) / RFU KIR2DL2 /// KIR2DL4 /// KIR2DL5A /// KIR2DL5B /// KIR2DS1 /// KIR2DS2 /// KIR2DS3 /// KIR2DS4 /// KIR3DL3 /// KIR3DL3 /// KIR3DS1 (11738374_at) / Fold change /veh KIR2DL2 /// KIR2DL4 /// KIR2DL5A /// KIR2DL5B /// KIR2DS1 /// KIR2DS2 /// KIR2DS3 /// KIR2DS4 /// KIR3DL3 /// KIR3DL3 /// KIR3DS1 (11738374_at) / RFU C1QL1 (11718748_at) / Fold change /veh C1QL1 (11718748_at) / RFU TMPRSS4 (11747572_a_at) / Fold change /veh TMPRSS4 (11747572_a_at) / RFU HAMP (11756126_x_at) / Fold change /veh HAMP (11756126_x_at) / RFU RNFT2 (11725882_a_at) / Fold change /veh RNFT2 (11725882_a_at) / RFU NR4A2 (11747474_a_at) / Fold change /veh NR4A2 (11747474_a_at) / RFU ABCC12 (11746883_a_at) / Fold change /veh ABCC12 (11746883_a_at) / RFU TMEM136 (11760407_x_at) / Fold change /veh TMEM136 (11760407_x_at) / RFU CLDN22 /// WWC2 (11732394_at) / Fold change /veh CLDN22 /// WWC2 (11732394_at) / RFU HLA-DPB1 (11760878_x_at) / Fold change /veh HLA-DPB1 (11760878_x_at) / RFU SPINT1 (11716480_a_at) / Fold change /veh SPINT1 (11716480_a_at) / RFU GAP43 (11754022_s_at) / Fold change /veh GAP43 (11754022_s_at) / RFU A4GNT (11735810_at) / Fold change /veh A4GNT (11735810_at) / RFU PRB3 (11715151_x_at) / Fold change /veh PRB3 (11715151_x_at) / RFU TUBB4B (11761932_at) / Fold change /veh TUBB4B (11761932_at) / RFU CAPN14 (11732068_a_at) / Fold change /veh CAPN14 (11732068_a_at) / RFU TMCC2 (11721928_a_at) / Fold change /veh TMCC2 (11721928_a_at) / RFU IRGQ (11745062_a_at) / Fold change /veh IRGQ (11745062_a_at) / RFU FAM174B (11720279_a_at) / Fold change /veh FAM174B (11720279_a_at) / RFU TMPRSS4 (11748680_a_at) / Fold change /veh TMPRSS4 (11748680_a_at) / RFU FAM212B (11763350_a_at) / Fold change /veh FAM212B (11763350_a_at) / RFU PLEKHG5 (11743358_a_at) / Fold change /veh PLEKHG5 (11743358_a_at) / RFU ZSCAN30 (11745921_a_at) / Fold change /veh ZSCAN30 (11745921_a_at) / RFU CMKLR1 (11741424_a_at) / Fold change /veh CMKLR1 (11741424_a_at) / RFU LOC101060620 /// MAPK8IP1 (11723275_at) / Fold change /veh LOC101060620 /// MAPK8IP1 (11723275_at) / RFU SPTSSB (11747773_x_at) / Fold change /veh SPTSSB (11747773_x_at) / RFU PRSS12 (11739890_at) / Fold change /veh PRSS12 (11739890_at) / RFU BIN1 (11741810_x_at) / Fold change /veh BIN1 (11741810_x_at) / RFU WNT11 (11732464_a_at) / Fold change /veh WNT11 (11732464_a_at) / RFU C10orf10 (11716521_a_at) / Fold change /veh C10orf10 (11716521_a_at) / RFU C5orf56 (11738089_at) / Fold change /veh C5orf56 (11738089_at) / RFU CYB561 (11721691_x_at) / Fold change /veh CYB561 (11721691_x_at) / RFU ANKRD19P (11752326_a_at) / Fold change /veh ANKRD19P (11752326_a_at) / RFU OR2T12 /// OR2T33 /// OR2T8 (11738714_s_at) / Fold change /veh OR2T12 /// OR2T33 /// OR2T8 (11738714_s_at) / RFU VCAN (11748164_a_at) / Fold change /veh VCAN (11748164_a_at) / RFU JSRP1 (11732532_at) / Fold change /veh JSRP1 (11732532_at) / RFU KRTAP10-11 (11738290_x_at) / Fold change /veh KRTAP10-11 (11738290_x_at) / RFU MYO3A (11730013_a_at) / Fold change /veh MYO3A (11730013_a_at) / RFU EBF3 (11725865_a_at) / Fold change /veh EBF3 (11725865_a_at) / RFU CAMK2N1 (11719241_x_at) / Fold change /veh CAMK2N1 (11719241_x_at) / RFU C5orf56 (11738088_a_at) / Fold change /veh C5orf56 (11738088_a_at) / RFU OLFML3 (11715873_a_at) / Fold change /veh OLFML3 (11715873_a_at) / RFU LOC100653217 /// NTM (11731650_a_at) / Fold change /veh LOC100653217 /// NTM (11731650_a_at) / RFU MAPK11 (11762145_a_at) / Fold change /veh MAPK11 (11762145_a_at) / RFU FIZ1 (11724087_x_at) / Fold change /veh FIZ1 (11724087_x_at) / RFU OASL (11726364_x_at) / Fold change /veh OASL (11726364_x_at) / RFU SOX15 (11748057_x_at) / Fold change /veh SOX15 (11748057_x_at) / RFU CD79A (11719716_a_at) / Fold change /veh CD79A (11719716_a_at) / RFU HIST1H1D (11736915_at) / Fold change /veh HIST1H1D (11736915_at) / RFU CASKIN2 (11723855_a_at) / Fold change /veh CASKIN2 (11723855_a_at) / RFU LOC730098 (11760151_x_at) / Fold change /veh LOC730098 (11760151_x_at) / RFU OR4N2 (11742367_at) / Fold change /veh OR4N2 (11742367_at) / RFU PRRT2 (11749266_a_at) / Fold change /veh PRRT2 (11749266_a_at) / RFU SNX32 (11753110_a_at) / Fold change /veh SNX32 (11753110_a_at) / RFU CDHR5 (11726645_a_at) / Fold change /veh CDHR5 (11726645_a_at) / RFU RCAN1 (11760418_a_at) / Fold change /veh RCAN1 (11760418_a_at) / RFU FAM167A (11723789_a_at) / Fold change /veh FAM167A (11723789_a_at) / RFU FAM26E (11764081_at) / Fold change /veh FAM26E (11764081_at) / RFU ISYNA1 (11749810_s_at) / Fold change /veh ISYNA1 (11749810_s_at) / RFU ACY1 (11761880_at) / Fold change /veh ACY1 (11761880_at) / RFU 11764098_at / Fold change /veh 11764098_at / RFU SAMD14 (11745864_x_at) / Fold change /veh SAMD14 (11745864_x_at) / RFU NPB (11741838_a_at) / Fold change /veh NPB (11741838_a_at) / RFU TMPRSS6 (11731388_a_at) / Fold change /veh TMPRSS6 (11731388_a_at) / RFU KRTAP10-2 (11738614_at) / Fold change /veh KRTAP10-2 (11738614_at) / RFU ARHGAP8 /// PRR5-ARHGAP8 (11727945_x_at) / Fold change /veh ARHGAP8 /// PRR5-ARHGAP8 (11727945_x_at) / RFU KRTAP5-7 /// NADSYN1 (11734609_at) / Fold change /veh KRTAP5-7 /// NADSYN1 (11734609_at) / RFU RASL12 (11751679_a_at) / Fold change /veh RASL12 (11751679_a_at) / RFU CDKN2B (11736163_a_at) / Fold change /veh CDKN2B (11736163_a_at) / RFU PRF1 (11729649_at) / Fold change /veh PRF1 (11729649_at) / RFU, ZNF638 /// ZNF638-IT1 / Fold change vs veh, ZNF638 /// ZNF638-IT1 / RFU, PANK3 / Fold change vs veh, PANK3 / RFU, SH3YL1 / Fold change vs veh, SH3YL1 / RFU, ZEB2 / Fold change vs veh, ZEB2 / RFU, NRIP1 / Fold change vs veh, NRIP1 / RFU, PTTG1IP / Fold change vs veh, PTTG1IP / RFU, CAPN2 / Fold change vs veh, CAPN2 / RFU, MED14 / Fold change vs veh, MED14 / RFU, SNORA58 / Fold change vs veh, SNORA58 / RFU, C1orf63 / Fold change vs veh, C1orf63 / RFU, LRRFIP1 / Fold change vs veh, LRRFIP1 / RFU, NDUFAF7 / Fold change vs veh, NDUFAF7 / RFU, SLC12A2 / Fold change vs veh, SLC12A2 / RFU, IBTK / Fold change vs veh, IBTK / RFU, ESF1 / Fold change vs veh, ESF1 / Fold change vs veh, TMEM50B / RFU, TAOK1 / Fold change vs veh, TAOK1 / RFU, ACBD3 / Fold change vs veh, ACBD3 / RFU, TMA16 / Fold change vs veh, TMA16 / RFU, RWDD3 / Fold change vs veh, RWDD3 / RFU, BCAT1 / Fold change vs veh, BCAT1 / RFU, EDEM3 / Fold change vs veh, EDEM3 / RFU, TMEM33 / Fold change vs veh, TMEM33 / RFU, WDR75 / Fold change vs veh, WDR75 / RFU, AHCTF1 / Fold change vs veh, AHCTF1 / RFU, TFRC / Fold change vs veh, TFRC / RFU, ZDHHC17 / Fold change vs veh, ZDHHC17 / RFU, NOM1 / Fold change vs veh, NOM1 / RFU, ARL8B / Fold change vs veh, ARL8B / RFU, ZBTB11 / Fold change vs veh, ZBTB11 / RFU, TAMM41 / Fold change vs veh, TAMM41 / RFU, KIAA1704 /// LOC100996395 / Fold change vs veh, KIAA1704 /// LOC100996395 / RFU, ING1 / Fold change vs veh, ING1 / RFU, TRMT61B / Fold change vs veh, TRMT61B / RFU, FUBP3 / Fold change vs veh, FUBP3 / RFU, TP53 / Fold change vs veh, TP53 / RFU, TNKS2 / Fold change vs veh, TNKS2 / RFU, ZFP14 / Fold change vs veh, ZFP14 / RFU, ACTR2 / Fold change vs veh, ACTR2 / RFU, PPP3R1 / Fold change vs veh, PPP3R1 / RFU, PIK3R1 / Fold change vs veh, PIK3R1 / RFU, HNRNPA1 / Fold change vs veh, HNRNPA1 / RFU, RNF170 / Fold change vs veh, RNF170 / RFU, ZNF28 / Fold change vs veh, ZNF28 / RFU, RNGTT / Fold change vs veh, RNGTT / RFU, OGT / Fold change vs veh, OGT / RFU, BRD1 / Fold change vs veh, BRD1 / RFU, MARS / Fold change vs veh, MARS / RFU, ZNF655 / Fold change vs veh, ZNF655 / RFU, FAHD1 / Fold change vs veh, FAHD1 / RFU, BDP1 / Fold change vs veh, BDP1 / RFU, LRRCC1 / Fold change vs veh, LRRCC1 / RFU, ARID1A / Fold change vs veh, ARID1A / RFU, ZNF146 / Fold change vs veh, ZNF146 / RFU, ZNF330 / Fold change vs veh, ZNF330 / RFU, GPN3 / Fold change vs veh, GPN3 / RFU, C9orf123 / Fold change vs veh, C9orf123 / RFU, N4BP2L2 / Fold change vs veh, N4BP2L2 / RFU, ARFIP1 / Fold change vs veh, ARFIP1 / RFU, FAM179B / Fold change vs veh, FAM179B / RFU, BCL10 / Fold change vs veh, BCL10 / RFU, UHRF1BP1L / Fold change vs veh, UHRF1BP1L / RFU, BET1 / Fold change vs veh, BET1 / RFU, CNOT2 / Fold change vs veh, CNOT2 / RFU, ZNF268 / Fold change vs veh, ZNF268 / Fold change vs veh, ZNF507 / RFU, DGCR2 / Fold change vs veh, DGCR2 / RFU, WDSUB1 / Fold change vs veh, WDSUB1 / Fold change vs veh, HSP90B1 /// MIR3652 / RFU, ADSS / Fold change vs veh, ADSS / RFU, GK / Fold change vs veh, GK / RFU, ZNF148 / Fold change vs veh, ZNF148 / RFU, TAF9 / Fold change vs veh, TAF9 / RFU, SLC1A5 / Fold change vs veh, SLC1A5 / RFU, SLMO2 / Fold change vs veh, SLMO2 / RFU, ABCC4 / Fold change vs veh, ABCC4 / RFU, LOC101060439 /// RAP1B / Fold change vs veh, LOC101060439 /// RAP1B / RFU, RFX7 / Fold change vs veh, RFX7 / RFU, GTPBP10 / Fold change vs veh, GTPBP10 / RFU, CNEP1R1 / Fold change vs veh, CNEP1R1 / RFU, BIVM-ERCC5 /// ERCC5 / Fold change vs veh, BIVM-ERCC5 /// ERCC5 / RFU, ILF3 / Fold change vs veh, ILF3 / RFU 11762660_at / Fold change /veh 11762660_at / RFU VCAN (11757783_s_at) / Fold change /veh VCAN (11757783_s_at) / RFU DDX43 (11728927_at) / Fold change /veh DDX43 (11728927_at) / RFU KRT8 (11758188_x_at) / Fold change /veh KRT8 (11758188_x_at) / RFU NKD1 (11759106_at) / Fold change /veh NKD1 (11759106_at) / RFU SRD5A1 (11742802_a_at) / Fold change /veh SRD5A1 (11742802_a_at) / RFU TPSAB1 /// TPSB2 (11721975_s_at) / Fold change /veh TPSAB1 /// TPSB2 (11721975_s_at) / RFU GSTM3 (11746129_a_at) / Fold change /veh GSTM3 (11746129_a_at) / RFU IL23R (11737362_x_at) / Fold change /veh IL23R (11737362_x_at) / RFU TMEM51 (11727254_a_at) / Fold change /veh TMEM51 (11727254_a_at) / RFU PIWIL2 (11732686_x_at) / Fold change /veh PIWIL2 (11732686_x_at) / RFU ORM1 (11744905_x_at) / Fold change /veh ORM1 (11744905_x_at) / RFU CCDC152 (11743942_at) / Fold change /veh CCDC152 (11743942_at) / RFU ECM1 (11717891_a_at) / Fold change /veh ECM1 (11717891_a_at) / RFU IL23R (11748794_a_at) / Fold change /veh IL23R (11748794_a_at) / RFU TNFAIP8L3 (11732012_x_at) / Fold change /veh TNFAIP8L3 (11732012_x_at) / RFU MBOAT4 (11741988_at) / Fold change /veh MBOAT4 (11741988_at) / RFU 11764193_at / Fold change /veh 11764193_at / RFU TMEM53 (11763286_at) / Fold change /veh TMEM53 (11763286_at) / RFU MAGEB2 (11727129_at) / Fold change /veh MAGEB2 (11727129_at) / RFU TMEM200A (11744735_a_at) / Fold change /veh TMEM200A (11744735_a_at) / RFU CCDC152 (11751479_a_at) / Fold change /veh CCDC152 (11751479_a_at) / RFU FAM211A (11726209_a_at) / Fold change /veh FAM211A (11726209_a_at) / RFU RGS16 (11746705_a_at) / Fold change /veh RGS16 (11746705_a_at) / RFU VCAN (11755009_s_at) / Fold change /veh VCAN (11755009_s_at) / RFU RHOB (11743442_s_at) / Fold change /veh RHOB (11743442_s_at) / RFU RGS16 (11720943_a_at) / Fold change /veh RGS16 (11720943_a_at) / RFU RGS16 (11720944_at) / Fold change /veh RGS16 (11720944_at) / RFU, VPS4B / Fold change vs veh, VPS4B / RFU, CREB1 / Fold change vs veh, CREB1 / RFU, DNAJC13 / Fold change vs veh, DNAJC13 / RFU, GNAQ / Fold change vs veh, GNAQ / RFU, CDK5R1 / Fold change vs veh, CDK5R1 / RFU, ZRANB3 / Fold change vs veh, ZRANB3 / RFU, CUL4A / Fold change vs veh, CUL4A / RFU, CCNY / Fold change vs veh, CCNY / RFU, UFL1 / Fold change vs veh, UFL1 / RFU, COG3 / Fold change vs veh, COG3 / RFU, DIAPH2 / Fold change vs veh, DIAPH2 / RFU, SKA2 / Fold change vs veh, SKA2 / RFU, AFF3 / Fold change vs veh, AFF3 / RFU, LMF1 / Fold change vs veh, LMF1 / RFU, IPO11 / Fold change vs veh, IPO11 / RFU, DFFB / Fold change vs veh, DFFB / RFU, FOXP1 / Fold change vs veh, FOXP1 / RFU, CARD8 / Fold change vs veh, CARD8 / RFU, STRN3 / Fold change vs veh, STRN3 / RFU, ADK / Fold change vs veh, ADK / RFU, RASSF2 / Fold change vs veh, RASSF2 / RFU, WIPF1 / Fold change vs veh, WIPF1 / RFU, LARP1B / Fold change vs veh, LARP1B / RFU, RASA1 / Fold change vs veh, RASA1 / RFU, RB1 / Fold change vs veh, RB1 / RFU, PPFIA1 / Fold change vs veh, PPFIA1 / RFU, MAT2A / Fold change vs veh, MAT2A / RFU, CCT5 / Fold change vs veh, CCT5 / RFU, WDR92 / Fold change vs veh, WDR92 / RFU, CUX1 / Fold change vs veh, CUX1 / RFU, TTC7A / Fold change vs veh, TTC7A / RFU, TMEM135 / Fold change vs veh, TMEM135 / RFU, DEPTOR / Fold change vs veh, DEPTOR / RFU, CPM / Fold change vs veh, CPM / RFU, DNAJB6 / Fold change vs veh, DNAJB6 / RFU, CACNA2D3 / Fold change vs veh, CACNA2D3 / RFU, DTX4 / Fold change vs veh, DTX4 / RFU, TFCP2 / Fold change vs veh, TFCP2 / RFU, GMCL1 /// GMCL1P1 / Fold change vs veh, GMCL1 /// GMCL1P1 / RFU, AEBP2 / Fold change vs veh, AEBP2 / RFU, SNHG1 /// SNORD22 /// SNORD25 /// SNORD26 /// SNORD27 /// SNORD28 /// SNORD29 /// SNORD31 / Fold change vs veh, SNHG1 /// SNORD22 /// SNORD25 /// SNORD26 /// SNORD27 /// SNORD28 /// SNORD29 /// SNORD31 / Fold change (Aza/veh), C12orf56 (ProbeSet 11735607_a_at) / Fold change (ACY-1035/veh), C12orf56 (ProbeSet 11735607_a_at) / Fold change (Aza/veh), FGFR1OP (ProbeSet 11751329_s_at) / Fold change (ACY-1035/veh), FGFR1OP (ProbeSet 11751329_s_at) / Fold change (Aza/veh), VPS36 (ProbeSet 11739960_a_at) / Fold change (ACY-1035/veh), VPS36 (ProbeSet 11739960_a_at) / RFU SYPL1 (11715823_x_at) / Fold change /veh SYPL1 (11715823_x_at) / RFU IGFBP7 (11715501_s_at) / Fold change /veh IGFBP7 (11715501_s_at) / RFU REEP3 (11722064_at) / Fold change /veh REEP3 (11722064_at) / RFU IGLL1 (11728026_x_at) / Fold change /veh IGLL1 (11728026_x_at): dose or concentration left out as unconfirmed. The note with it: MV-4-11 cells, 48 hours.

As to `Nc1ccc(-c2cccs2)cc1NC(=O)c1ccc2c(c1)cc(C1CC1)n2CCN1CCOCC1` [ACY-1035], the “Fold change /veh VCAN (11757783_s_at)” value worked out at 1.01.
